From EP1566447A1, “Glimepiride- and insulin-induced glycosylphosphatidylinositol-specific phospholipase C regulation” (priority 2004, dated 2005)
Entries after “also recorded” stand apart in the source; their conditions may differ.

Tests used:
lipoprotein lipase (LPL) = biological target: T1, lipoprotein lipase (LPL) (Bos taurus, UniProt P11151); assay: selectivity: lipoprotein lipase assay; format: biochemical, bovine; details: 50 µM
T1 construct: purchased Sigma/Aldrich (Deisenhofen, Germany); host or cells: bovine milk
T1 sequence (P11151 29-478): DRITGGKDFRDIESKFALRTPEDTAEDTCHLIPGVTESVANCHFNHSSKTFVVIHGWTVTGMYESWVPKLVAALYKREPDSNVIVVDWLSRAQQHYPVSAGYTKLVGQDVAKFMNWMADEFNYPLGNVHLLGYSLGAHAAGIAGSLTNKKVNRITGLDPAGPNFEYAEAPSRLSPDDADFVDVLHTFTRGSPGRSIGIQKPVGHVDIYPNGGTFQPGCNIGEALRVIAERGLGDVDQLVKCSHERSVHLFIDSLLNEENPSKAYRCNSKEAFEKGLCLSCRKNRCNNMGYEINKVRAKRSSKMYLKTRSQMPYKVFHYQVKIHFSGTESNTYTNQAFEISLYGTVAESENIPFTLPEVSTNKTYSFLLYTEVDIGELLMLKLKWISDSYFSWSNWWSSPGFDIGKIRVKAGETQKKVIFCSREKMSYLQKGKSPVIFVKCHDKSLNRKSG
Method: (§1) Hormone-sensitive lipase (HSL) and lipoprotein lipase (LPL) were measured using a radiolabeled triolein droplet emulsion as described in "Vertesy et al., (2002) Journal Antibiotics 55:480-494". Pancreatic lipase (PL) was determined by incubation of 0.25 mmol tributyrin in 2 ml of 5 mM Tris/HCl (pH 6.5), 6 mM sodium taurodeoxycholate, 150 mM NaCl, 1 mM CaCl2 with porcine PL and colipase in the same buffer using a recording pH stat (stirring at 1000 rpm at 25°C) with the pH adjusted to 6.5. PC-PLC was assayed by incubation of 0.2 ml of 10 mM dipalmitoyllecithin, 0.1 ml of 10 mM SDC and 0.1 ml of 0.03 M CaCl2 with bacterial PC-PLC (in 50 mM Tris/HCl, pH 7.5, 0.1 % BSA) for 10 min at 37°C. The reaction was terminated by addition of 0.1 ml of 50 % TCA and subsequently of 2.5 ml of […]. After centrifugation (1500xg, 15 min), 0.2-ml portions of the upper methanol/water phase (~ 1.33 ml) was removed, supplemented with 0.5 ml of 60 % HClO4, then heated at 170°C for 1 h and finally analyzed for inorganic phosphate. Mammalian PI-PLC was measured by incubation of 0.1 ml of 10 mM PI, 0.1 ml of 0.8 % sodium deoxycholate, 0.1 % BSA, 0.2 ml of 100 mM sodium borate (pH 7.5) and rat liver PI-PLC for 20 min at 37°C. The reaction was terminated and further processed as described for the PC-PLC. […] Radioactive phosphatidic acid was detected by phosphorimaging. […]

rat adipocytes = assay: isoproterenol-induced lipolysis (glycerol release); format: cell-based
Method: Electroporation was performed as described in "Müller, G. et al., (2000) Mol. Cell. Biol. 20: 4708-4723". Lipolysis was determined as release of glycerol or fluorescent NBD-FA from prelabeled and isoproterenol-stimulated adipocytes as described in "Müller, G. et al., (2003) Biochimie 85: 1245-1256". Gce1 was detected by photolabeling of solubilized plasma membranes or hc/IcDIGs (10-50 µg protein) with 8-N3-[^32P]cAMP and subsequent phosphorimaging as described in "Müller, G. et al., (1994) Biochemistry 33: 12149-12159". 5'-Nuc, aP and AChE activities were measured according to "Eliakim, R. et al., (1990) Biochim. Biophys. Acta 1355: 293-302". Protein was determined using the BCA protein determination kit from Pierce (Rockford, IL) and BSA as calibration standard. SDS-PAGE was performed using precast gels (Novex, San Diego, CA; 10 % Bis-Tris resolving gel, morpholinopropanesulfonic acid-SDS running buffer). Lumiimages were evaluated on a Lumilmager using Lumilmager software (Roche Diagnostics). Phosphor- and fluorescence images were processed and quantified using the Storm 860 Phosphorlmager system (Molecular Dynamics, Gelsenkirchen, Germany). Figures were constructed using the Adobe Photoshop software (Adobe Systems, Mountain View, CA).
Fig. 8: Effect of GPI-2350 on the glimepiride/insulin-induced metabolic activity. Isolated rat adipocytes were treated (5 min, 37°C) without or with GPI-2350 (Panel A, 50 µM; Panel B, increasing conc.; Panel C, 5 µM, 50 µM) and then incubated (15 min, 37°C) in the absence or presence of insulin (Ins, 10 nM) or glimepiride (Gli, 20 µM or increasing conc.) as indicated. The adipocytes were then assayed for glucose transport and isoproterenol-induced lipolysis. The activity is given relative to the absence of GPI-2350 in the control reaction (Panels A, basal) or in the insulin- and glimepiride-stimulated state (Panels B and C, set at 100). Means ± SD of at least 5 independent cell incubations with activity measurements in triplicate each are given.

rat liver PI-PLC = assay: selectivity: mammalian PI-PLC assay; format: biochemical; details: 50 µM
Method: as §1

Structure (SMILES): CCCCCCCCCCCCP1(=O)O[C@@H]2[C@H](O)[C@@H](O)[C@H](O)[C@@H](O)[C@@H]2O1 (mixture of isomers) [GPI-2350, myo-inositol-1,2-cyclo-dodecylphosphonic acid]
- effect on lipase activity (lipoprotein lipase (LPL)): not significantly affected
- effect on inhibition of lipolysis in response to glimepiride (rat adipocytes; 50 µM): almost complete blockade; also recorded: lower than control values
- IC50 (rat adipocytes; Rattus norvegicus, Adipocyte): 2 to 5 µM
- inhibition at 50 µM (rat adipocytes; Rattus norvegicus, Adipocyte, 50 µM, insulin 10 nM, read-out: reduction of insulin inhibition of isoproterenol-induced lipolysis): ≤ 33%
- effect on phospholipase activity (rat liver PI-PLC): not significantly affected
